# ChEMBL document CHEMBL1177832, “One unique steroidal sapogenin obtained through the microbial transformation of ruscogenin by Phytophthora cactorum ATCC 32134 and its potential inhibitory effect on tissue factor (TF) procoagulant activity” (Bioorg Med Chem Lett, 2010)
# pIC50: −log10 of the molar value.
# Test system: THP-1
# Test: Anticoagulant activity in human THP1 cells assessed as inhibition of TNF-alpha-stimulated tissue factor expression incubated 1 hr before TNFalpha challenge measured after 5 hrs
# Assay type: functional, cell-based
row,SMILES,pIC50
1,C[C@@H]1CC[C@@]2(OC1)O[C@H]1C[C@H]3[C@@H]4CCC5=CC(=O)C[C@@H](O)[C@]5(C)[C@H]4CC[C@]3(C)[C@H]1[C@@H]2C,6.54
2,COc1cc(/C=C/C(=O)CC(=O)/C=C/c2ccc(O)c(OC)c2)ccc1O [CURCUMIN],5.92
3,C[C@@H]1CC[C@@]2(OC1)O[C@H]1C[C@H]3[C@@H]4CC=C5C[C@@H](O)CC[C@]5(C)[C@H]4CC[C@]3(C)[C@H]1[C@@H]2C [DISOGENIN],5.16
4,C[C@@H]1CC[C@@]2(OC1)O[C@H]1C[C@H]3[C@@H]4CC=C5C[C@@H](O)C[C@@H](O)[C@]5(C)[C@H]4CC[C@]3(C)[C@H]1[C@@H]2C [RUSCOGENIN],5.64
5,C[C@H]1CC[C@@]2(OC1)O[C@H]1C[C@H]3[C@@H]4CC[C@@H]5C[C@@H](O)CC[C@]5(C)[C@H]4CC[C@]3(C)[C@H]1[C@@H]2C [SARSASAPOGENIN],5.48
